Paper PMC8795745, “A GSH/CB Dual-Controlled Self-Assembled Nanomedicine for High-Efficacy Doxorubicin-Resistant Breast Cancer Therapy” (Frontiers in Pharmacology, 2022)
Bridge positions count the residues as written; N and C are the ends. Square brackets hold non-standard residues; d marks the D form. Peptide text beside a SMILES is read from it. * marks the point of attachment. Acetyl(2-naphthyl) = O=C(Cc1ccc2ccccc2c1)*

Legend:
[1] = target: T1, CB enzyme (cathepsin B) (Homo sapiens, UniProt P07858); assay: Cathepsin B conversion of linear-1a into linear-1b (LC-MS); type: biochemical; conditions: after GSH 8 mM for 12 h, then CB 1 U/mL, 37 °C, PBS pH 7.4; at 20 h; LC-MS peak area; mean, n=3
T1 construct: purchased Sigma-Aldrich (St. Louis, MO, USA)
Protocol: Molecular self-assembly was performed as described previously.^[1] Briefly, the cyclic-1a was diluted into the phosphate-buffered saline (PBS; pH 7.4) to a final concentration of 1600 µM and incubated at 37 °C. The GSH (8 mM) was then added to the above solution for 12 h at 37 °C to trigger the first step of self-assembly. Afterward, cathepsin B was added to the solution for 12 h at 37 °C to trigger the second step of self-assembly (1 U/mL).
2 mL of the sample prepared by part 3 were adding GSH (8 mM) for 12 h, and then added 1 U/mL of cathepsin B, 100 µL of each sample was collected at each time point and 100 µL methanol was added to terminate the reaction. The method of detection was similar to part 3.1.

[2] = test system: MCF-7 cells; type: cell-based
[3] = test system: MCF-7 cells; type: cell-based; remark: listed apart in the source
Protocol: (§1) MTT assay was performed as described previously.^[6^] Briefly, the cells (5 × 10^3 cells/well) were seeded in 96-well culture plates (Coring) and incubated overnight. Then cells were exposed to various concentrations of cyclic-1a and incubated at 37 °C for 72 h. After that, MTT stock solution (0.5 mg/mL) was added into each well and cultured for additional 4 h. The MTT treated cells were […] with 150 μL of DMSO. The absorbance in each individual well was measured by using a microplate spectrophotometer at […] (SpectraMax M2e, Molecular Devices Inc. USA).

[4] = test system: MCF-7/DOX cells; assay: MTT assay, MCF-7/DOX cells; type: cell-based; conditions: Homo sapiens, MCF7-DOX, mean ± SD, n=3
Protocol: as §1

[5] = Body weight and histological examination of organs in tumor-bearing mice; type: in vivo, BALB/c nude mice; conditions: cyclic-1a 20 and 60 mg/kg
Protocol: Female BALB/c nude mice (6 weeks old) were purchased from the Experimental Animal Center of Yangzhou University. The experiments involving animals were approved by the Animal Ethics Committee of China Pharmaceutical University (Ethic approval number: 2020-07-003). In vivo anticancer activity assay was performed as described previously.^[9^] Briefly, MCF-7/DOX cells (200 μL, 1 × 10^7 cells) were implanted into the right mammary fat pad of nude mice. Once tumors grew to 80-100 mm^3, mice were randomly assigned into four groups and treated intraperitoneally with vehicle, cyclic-1a (20 mg/kg), cyclic-1a (60 mg/kg) or DOX (5 mg/kg) every 3 days for a total of six times. Tumor volume and body weight were measured every 3 days. Tumor volume was calculated using the formula (c × c × d)/2 (c, the smallest diameter; d, the largest diameter).
Immunohistochemical stains against Ki67 and cleaved caspase 3 were performed using immunohistochemistry kit (KeyGen, Nanjing, China) according to the manufacturer’s instructions. Mouse organs (heart, liver, spleen, lung and kidney) tissues were fixed in 4% paraformaldehyde at 4 °C for 48 h, and then embedded in paraffin wax, sectioned (5 µm) and processed for H&E staining. Inverted fluorescence microscope was used to photograph all sections.

Compound: N=C(N)NCCC[C@H](NC(=O)CNC(=O)CNC(=O)[C@H](CS)NC(=O)[C@@H](CCCCN)NC(=O)[C@@H](Cc1ccc(O)cc1)NC(=O)[C@@H](Cc1ccccc1)NC(=O)[C@@H](Cc1ccccc1)NC(=O)[C@H](CS)NC(=O)Cc1ccc2ccccc2c1)C(=O)N[C@@H](CCCNC(=N)N)C(=O)NCC(=O)N[C@@H](CCCCN)C(=O)NCC(=O)NCC(=O)N[C@@H](Cc1c[nH]cn1)C(=O)N[C@@H](Cc1c[nH]cn1)C(=O)N[C@@H](Cc1c[nH]cn1)C(=O)N[C@@H](CCCNC(=N)N)C(=O)N[C@@H](CCCNC(=N)N)C(=O)NCC(=O)N[C@@H](CC(=O)O)C(=O)N[C@@H](CO)C(=O)O [linear-1a] ({Acetyl(2-naphthyl)}-C[dF][dF][dY][dK]CGGRRGKGGHHHRRGDS-OH)
- linear-1a converted into linear-1b [1]: more than 90%

Compound: N=C(N)NCCC[C@H](NC(=O)CNC(=O)CNC(=O)[C@@H]1CSSC[C@H](NC(=O)Cc2ccc3ccccc3c2)C(=O)N[C@H](Cc2ccccc2)C(=O)N[C@H](Cc2ccccc2)C(=O)N[C@H](Cc2ccc(O)cc2)C(=O)N[C@H](CCCCN)C(=O)N1)C(=O)N[C@@H](CCCNC(=N)N)C(=O)NCC(=O)N[C@@H](CCCCN)C(=O)NCC(=O)NCC(=O)N[C@@H](Cc1c[nH]cn1)C(=O)N[C@@H](Cc1c[nH]cn1)C(=O)N[C@@H](Cc1c[nH]cn1)C(=O)N[C@@H](CCCNC(=N)N)C(=O)N[C@@H](CCCNC(=N)N)C(=O)NCC(=O)N[C@@H](CC(=O)O)C(=O)N[C@@H](CO)C(=O)O [cyclic-1a] ({Acetyl(2-naphthyl)}-C[dF][dF][dY][dK]CGGRRGKGGHHHRRGDS-OH; disulfide 1-6)
- cellular uptake ability, MCF-7 cells [2]: strong cellular uptake ability
- cytotoxicity to MCF-7 cells (MTT) [3]: no obvious cytotoxicity

Compound: COc1cccc2c1C(=O)c1c(O)c3c(c(O)c1C2=O)C[C@@](O)(C(=O)CO)C[C@@H]3O[C@H]1C[C@H](N)[C@H](O)[C@H](C)O1 [doxorubicin, Doxorubicin]
- IC50 [4]: 83.3 ± 6.13 µM
- body weight of mice ([5]; DOX 5 mg/kg, intraperitoneally every 3 days, six times, n=6): gradually increased throughout the experiments except for the DOX-treated group
- pathological lesions in organs (H&E) ([5]; heart, liver, spleen, lung and kidney, DOX 5 mg/kg intraperitoneally): lesions of the heart and kidney were detected
